pIC50: −log10 of the molar value.
System: Endogenous Huntingtin Protein
Assay: Endogenous Huntingtin Protein Assay (Meso Scale Discovery ELISA-based electrochemiluminescence)
Format: cell-based
Settings: MSD plates coated with MW1 (expanded polyglutamine) or MAB2166 capture antibody; lysates
Method: Compounds of Formula (I) were tested using the Meso Scale Discovery (MSD) Assay provided in International Application No. PCT/US2016/066042, filed on Dec. 11, 2016 and claiming priority to United States Provisional Application U.S. 62/265,652 filed on Dec. 10, 2015, the entire contents of which are incorporated herein by reference.
The Endogenous Huntingtin Protein assay used in Example 1 was developed using the ELISA-based MSD electrochemiluminescence assay platform.
Endogenous Huntingtin Protein Assay
Meso Scale Discovery (MSD) 96-well or 384-well plates were coated overnight at 4° C. with MW1 (expanded polyglutamine) or MAB2166 monoclonal antibody (for capture) at a concentration of 1 μg/mL in PBS (30 μL per well). Plates were then washed three times with 300 μL wash buffer (0.05% Tween-20 in PBS) and blocked (100 μL blocking buffer; 5% BSA in PBS) for 4-5 hours at room temperature with rotational shaking and then washed three times with wash buffer.
Samples (25 μL) were transferred to the antibody-coated MSD plate and incubated overnight at 4° C. After removal of the lysates, the plate was washed three times with wash buffer, and 25 μL of #5656S (Cell signaling; rabbit monoclonal) secondary antibody (diluted to 0.25 μg/mL in 0.05% Tween-20 in blocking buffer) was added to each well and incubated with shaking for 1 Hour at room temperature. Following incubation with the secondary antibody, the wells were rinsed with wash buffer after which 25 μL of goat anti-rabbit SULFO TAG secondary detection antibody (required aspect of the MSD system) (diluted to 0.25 μg/mL in 0.05% Tween-20 in blocking buffer) was added to each well and incubated with shaking for 1 hour at room temperature. After rinsing three times with wash buffer, 150 μL of read buffer T with surfactant (MSD) were added to each empty well, and the plate was imaged on a SI 6000 imager (MSD) according to manufacturers' instructions provided for 96- or 384-well plates.

Row | SMILES | pIC50
1 | CC1(C)CC(n2nnc3cc(-c4cc5c(cc4O)/C(=N/O)CC5)nnc32)CC(C)(C)N1 [Cpd 82, (3E)-3-(hydroxyimino)-6-[3-(2,2,6,6-tetramethylpiperidin-4-yl)-3H-[1,2,3]triazolo[4,5-c]pyridazin-6-yl]-2,3-dihydro-1H-inden-5-ol] | 6.30 to 7.00
2 | Fc1c(-c2cn[nH]c2)ccc(-c2cc3c(nn2)N(C2CC4CCC(C2)N4)CC3)c1F (stereo not drawn) [Cpd 36, 7-[(3-exo)-8-azabicyclo[3.2.1]oct-3-yl]-3-[2,3-difluoro-4-(1H-pyrazol-4-yl)phenyl]-6,7-dihydro-5H-pyrrolo[2,3-c]pyridazine] | 6.30 to 7.00
3 | C[C@]12CC[C@](C)(CC(n3nnc4cc(-c5ccc(-c6cn[nH]c6)cc5O)nnc43)C1)N2 (stereo partly drawn) [Cpd 57, 2-{3-[(1R,5S)-1,5-dimethyl-8-azabicyclo[3.2.1]octan-3-yl]-3H-[1,2,3]triazolo[4,5-c]pyridazin-6-yl}-5-(1H-pyrazol-4-yl)phenol] | ≥ 7.00
4 | CC1(C)CC(n2nnc3cc(-c4ccc(-c5ccc(O)nn5)cc4O)nnc32)CC(C)(C)N1 [Cpd 79, 6-{3-hydroxy-4-[3-(2,2,6,6-tetramethylpiperidin-4-yl)-3H-[1,2,3]triazolo[4,5-c]pyridazin-6-yl]phenyl}pyridazin-3-ol] | 6.00 to 6.30
5 | Oc1cc(-c2cn[nH]c2)ccc1-c1cc2[nH]cc(C3CC4COCC(C3)N4)c2nn1 (centres unmarked) [Cpd 30, 2-[7-(3-oxa-9-azabicyclo[3.3.1]non-7-yl)-5H-pyrrolo[3,2-c]pyridazin-3-yl]-5-(1H-pyrazol-4-yl)phenol] | 6.00 to 6.30
6 | Cn1cc(-c2cc(O)c(-c3cc4nnn(C5CC(C)(C)NC(C)(C)C5)c4nn3)cc2F)cn1 [Cpd 62, 4-fluoro-5-(1-methyl-1H-pyrazol-4-yl)-2-[3-(2,2,6,6-tetramethylpiperidin-4-yl)-3H-[1,2,3]triazolo[4,5-c]pyridazin-6-yl]phenol] | ≥ 7.00
7 | CC1(C)CC(n2nnc3cc(-c4ccc(-c5cncnc5)cc4O)nnc32)CC(C)(C)N1 [Cpd 78, 5-(pyrimidin-5-yl)-2-[3-(2,2,6,6-tetramethylpiperidin-4-yl)-3H-[1,2,3]triazolo[4,5-c]pyridazin-6-yl]phenol] | 5.52 to 6.00
8 | CC1(C)CC(n2cnc3cc(-c4cc(F)c(-c5cn[nH]c5)cc4F)nnc32)CC(C)(C)N1 [Cpd 4, 3-[2,5-difluoro-4-(1H-pyrazol-4-yl)phenyl]-7-(2,2,6,6-tetramethylpiperidin-4-yl)-7H-imidazo[4,5-c]pyridazine] | ≥ 7.00
9 | CC1(C)CC(n2nnc3cc(-c4ccc(-n5ccnc5)cc4O)nnc32)CC(C)(C)N1 [Cpd 70, 5-(1H-imidazol-1-yl)-2-[3-(2,2,6,6-tetramethylpiperidin-4-yl)-3H-[1,2,3]triazolo[4,5-c]pyridazin-6-yl]phenol] | ≥ 7.00
10 | Cn1ccc(-c2cc(O)c(-c3cc4nnn(C5CC(C)(C)NC(C)(C)C5)c4nn3)cc2F)cc1=O [Cpd 55, 4-{2-fluoro-5-hydroxy-4-[3-(2,2,6,6-tetramethylpiperidin-4-yl)-3H-[1,2,3]triazolo[4,5-c]pyridazin-6-yl]phenyl}-1-methylpyridin-2(1H)-one] | 6.30 to 7.00
11 | CC1(C)CC(n2nnc3cc(-c4ccc(-c5cccnc5)cc4O)nnc32)CC(C)(C)N1 [Cpd 65, 5-(pyridin-3-yl)-2-[3-(2,2,6,6-tetramethylpiperidin-4-yl)-3H-[1,2,3]triazolo[4,5-c]pyridazin-6-yl]phenol] | 6.00 to 6.30
12 | Oc1cc(-c2cn[nH]c2)ccc1-c1cc2[nH]cc(C3=CCNCC3)c2nn1 [Cpd 11, 5-(1H-pyrazol-4-yl)-2-[7-(1,2,3,6-tetrahydropyridin-4-yl)-5H-pyrrolo[3,2-c]pyridazin-3-yl]phenol] | 5.52 to 6.00
13 | Cn1nccc1-c1ccc(-c2cc3nnn(C4CC(C)(C)NC(C)(C)C4)c3nn2)c(O)c1 [Cpd 50, 5-(1-methyl-1H-pyrazol-5-yl)-2-[3-(2,2,6,6-tetramethylpiperidin-4-yl)-3H-[1,2,3]triazolo[4,5-c]pyridazin-6-yl]phenol] | 6.30 to 7.00
14 | Oc1cc(-c2cn[nH]c2)ccc1-c1cc2[nH]cc(C3CC4CCC(C3)N4)c2nn1 (centres unmarked) [Cpd 29, 2-[7-(8-azabicyclo[3.2.1]oct-3-yl)-5H-pyrrolo[3,2-c]pyridazin-3-yl]-5-(1H-pyrazol-4-yl)phenol] | ≥ 7.00

Results, then the molecule that gave them:

Row | pIC50 | SMILES
15 | 6.00 to 6.30 | CC1(C)CC(n2nnc3cc(-c4cc5cn[nH]c5cc4O)nnc32)CC(C)(C)N1 [Cpd 94, 5-[3-(2,2,6,6-tetramethylpiperidin-4-yl)-3H-[1,2,3]triazolo[4,5-c]pyridazin-6-yl]-1H-indazol-6-ol]
16 | ≥ 7.00 | Cn1cc(-c2ccc(-c3cc4nnn(C5CC(C)(C)NC(C)(C)C5)c4nn3)c(O)c2)c(F)n1 [Cpd 130, 5-(3-fluoro-1-methyl-1H-pyrazol-4-yl)-2-[3-(2,2,6,6-tetramethylpiperidin-4-yl)-3H-[1,2,3]triazolo[4,5-c]pyridazin-6-yl]phenol]
17 | ≥ 7.00 | CC1(C)CC(n2cnc3cc(-c4ncc(-c5cn[nH]c5)cc4O)nnc32)CC(C)(C)N1 [Cpd 141, 5-(1H-pyrazol-4-yl)-2-[7-(2,2,6,6-tetramethylpiperidin-4-yl)-7H-imidazo[4,5-c]pyridazin-3-yl]pyridin-3-ol]
18 | ≥ 7.00 | CC1(C)CC(n2nnc3cc(-c4ccc(-c5c[nH]nn5)cc4O)nnc32)CC(C)(C)N1 [Cpd 112, 2-[3-(2,2,6,6-tetramethylpiperidin-4-yl)-3H-[1,2,3]triazolo[4,5-c]pyridazin-6-yl]-5-(1H-1,2,3-triazol-4-yl)phenol]
19 | 5.52 to 6.00 | Cn1cnc2cc(-c3cc4nnn(C5CC(C)(C)NC(C)(C)C5)c4nn3)c(O)cc21 [Cpd 92, 1-methyl-5-[3-(2,2,6,6-tetramethylpiperidin-4-yl)-3H-[1,2,3]triazolo[4,5-c]pyridazin-6-yl]-1H-benzimidazol-6-ol]
20 | ≥ 7.00 | CC1(C)CC(n2nnc3cc(-c4ccc(-c5cc[nH]c(=O)c5)cc4O)nnc32)CC(C)(C)N1 [Cpd 93, 4-{3-hydroxy-4-[3-(2,2,6,6-tetramethylpiperidin-4-yl)-3H-[1,2,3]triazolo[4,5-c]pyridazin-6-yl]phenyl}pyridin-2(1H)-one]
21 | 6.30 to 7.00 | CC1(C)CC(n2nnc3cc(-c4ccc(-c5ccn6nncc6c5)cc4O)nnc32)CC(C)(C)N1 [Cpd 125, 2-[3-(2,2,6,6-tetramethylpiperidin-4-yl)-3H-[1,2,3]triazolo[4,5-c]pyridazin-6-yl]-5-([1,2,3]triazolo[1,5-a]pyridin-5-yl)phenol]
22 | ≥ 7.00 | Cc1nc2cc(-c3cc4nnn(C5CC(C)(C)NC(C)(C)C5)c4nn3)c(O)cc2[nH]1 [Cpd 97, 2-methyl-5-[3-(2,2,6,6-tetramethylpiperidin-4-yl)-3H-[1,2,3]triazolo[4,5-c]pyridazin-6-yl]-1H-benzimidazol-6-ol]
23 | ≥ 7.00 | Cn1ccc(-c2ccc(-c3cc4cnn(C5CC(C)(C)NC(C)(C)C5)c4nn3)c(O)c2)n1 [Cpd 169, 5-(1-methyl-1H-pyrazol-3-yl)-2-[1-(2,2,6,6-tetramethylpiperidin-4-yl)-1H-pyrazolo[3,4-c]pyridazin-5-yl]phenol]
24 | ≥ 7.00 | CC1(C)CC(n2nnc3cc(-c4ccc(-c5c[nH]nc5C#N)cc4O)nnc32)CC(C)(C)N1 [Cpd 109, 4-{3-hydroxy-4-[3-(2,2,6,6-tetramethylpiperidin-4-yl)-3H-[1,2,3]triazolo[4,5-c]pyridazin-6-yl]phenyl}-1H-pyrazole-3-carbonitrile]
25 | 6.00 to 6.30 | Cn1cc(-c2ccc(-c3cc4nnn(C5CC(C)(C)NC(C)(C)C5)c4nn3)c(O)c2)c(C#N)n1 [Cpd 132, 4-{3-hydroxy-4-[3-(2,2,6,6-tetramethylpiperidin-4-yl)-3H-[1,2,3]triazolo[4,5-c]pyridazin-6-yl]phenyl}-1-methyl-1H-pyrazole-3-carbonitrile]
26 | 5.52 to 6.00 | CN(C)c1ccc(-c2ccc(-c3cc4nnn(C5CC(C)(C)NC(C)(C)C5)c4nn3)c(O)c2)cn1 [Cpd 84, 5-[6-(dimethylamino)pyridin-3-yl]-2-[3-(2,2,6,6-tetramethylpiperidin-4-yl)-3H-[1,2,3]triazolo[4,5-c]pyridazin-6-yl]phenol]
27 | ≥ 7.00 | Cn1cc(-c2ccc(-c3cc4nnn(C5CC(C)(C)NC(C)(C)C5)c4nn3)c(O)c2)c(Cl)n1 [Cpd 127, 5-(3-chloro-1-methyl-1H-pyrazol-4-yl)-2-[3-(2,2,6,6-tetramethylpiperidin-4-yl)-3H-[1,2,3]triazolo[4,5-c]pyridazin-6-yl]phenol]
28 | ≥ 7.00 | [2H]C([2H])([2H])n1cc(-c2ccc(-c3cc4cnn(C5CC(C)(C)NC(C)(C)C5)c4nn3)c(O)c2)cn1 [Cpd 102, 5-[1-(^2H3)methyl-1H-pyrazol-4-yl]-2-[1-(2,2,6,6-tetramethylpiperidin-4-yl)-1H-pyrazolo[3,4-c]pyridazin-5-yl]phenol]
29 | ≥ 7.00 | CC1(C)CC(n2nnc3cc(-c4ccc(-c5ccc6nccn6n5)cc4O)nnc32)CC(C)(C)N1 [Cpd 162, 5-(imidazo[1,2-b]pyridazin-6-yl)-2-(3-(2,2,6,6-tetramethylpiperidin-4-yl)-3H-[1,2,3]triazolo[4,5-c]pyridazin-6-yl)phenol]
